Measurements: article PMC11945486, “TAS1R2/TAS1R3 Single-Nucleotide Polymorphisms Affect Sweet Taste Receptor Activation by Sweeteners: The SWEET Project” (Nutrients, 2025)

Molecular target: T1, human TAS1R2-I486V (subunit alone) (Homo sapiens, UniProt Q8TE23, I486V)
T1 construct: expressed in transfected cells; host or cells: HEK293T-Gα16gust44
T1 sequence (Q8TE23 20-839 I486V): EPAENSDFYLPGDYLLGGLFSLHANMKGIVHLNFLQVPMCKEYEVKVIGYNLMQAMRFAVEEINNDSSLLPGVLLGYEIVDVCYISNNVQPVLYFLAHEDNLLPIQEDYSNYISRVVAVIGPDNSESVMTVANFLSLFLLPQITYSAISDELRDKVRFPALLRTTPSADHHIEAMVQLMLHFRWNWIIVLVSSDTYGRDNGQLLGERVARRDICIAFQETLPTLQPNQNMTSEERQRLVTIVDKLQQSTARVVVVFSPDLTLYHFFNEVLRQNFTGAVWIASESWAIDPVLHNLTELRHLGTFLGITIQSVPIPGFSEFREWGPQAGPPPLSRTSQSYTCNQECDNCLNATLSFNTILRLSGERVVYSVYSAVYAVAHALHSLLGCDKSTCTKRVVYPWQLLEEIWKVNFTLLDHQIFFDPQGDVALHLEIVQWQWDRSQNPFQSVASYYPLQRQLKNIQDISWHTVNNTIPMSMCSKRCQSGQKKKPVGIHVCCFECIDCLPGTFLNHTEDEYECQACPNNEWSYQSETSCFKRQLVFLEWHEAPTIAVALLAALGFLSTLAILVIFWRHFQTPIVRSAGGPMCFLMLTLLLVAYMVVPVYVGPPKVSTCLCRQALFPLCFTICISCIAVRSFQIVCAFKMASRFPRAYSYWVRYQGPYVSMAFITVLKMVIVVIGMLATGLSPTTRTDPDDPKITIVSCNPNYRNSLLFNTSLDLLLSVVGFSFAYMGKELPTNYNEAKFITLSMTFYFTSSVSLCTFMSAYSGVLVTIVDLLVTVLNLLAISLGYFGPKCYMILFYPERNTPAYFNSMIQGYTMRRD
Assay: Calcium mobilisation assay, TAS1R2-I486V subunit alone
Type: cell-based
Description: The coding sequences for TAS1R2 and TAS1R3 were commercially synthesised, and the human codon was optimised for expression in human cells. The coding sequences of human TAS1R2 and TAS1R3 were subcloned and inserted into the mammalian expression vectors pcDNA6/myc-HisA and pcDNA4/myc-HisA (Invitrogen; Thermo Fisher Scientific; Illkirch, France) between the EcoRI and NotI restriction sites, generating the plasmids pcDNA6-TAS1R2 and pcDNA4-TAS1R3, respectively. To increase protein expression in mammalian cells, an upstream start codon was used, which was a sequence called MAX, corresponding to the QBI SP163 element also described in pcDNA4-HisMax (Invitrogen; Thermo Fisher Scientific; Illkirch, France). To measure the expression level of the receptor by immunohistochemistry, we used the FLAG sequence ([…]) in the C-terminal position, which encodes the FLAG tag epitope. […]
The HEK293T cells were kindly provided by Jay P. Slack (Givaudan Flavors Corporation; Cincinnati, OH, USA). […] The fluorescence intensity was measured for 90 s (excitation 488 nm, emission 510 nm) in an automated fluorometric FlexStation®3 Multi-Mode microplate reader (Molecular Devices; San Jose, CA, USA). […] The Ca^2+ changes were expressed as fractional changes in fluorescent light intensity: ΔF/F = (F − F0)/F0, where F was the fluorescent light intensity at each point, and F0 was the value of emitted fluorescent light prior to stimulus application. To calculate dose–response relationships, the changes in fluorescence upon stimulus application were averaged, mock-subtracted and baseline-corrected. […] The half-maximal effective concentrations (EC50 values) and maximal signal amplitudes were calculated using SigmaPlot software (version 15.0) (Systat Software; San Jose, CA, USA).
For in vitro calcium mobilisation assay performed on hTAS1R2-SNPs, hTAS1R3-SNPs and mTAS1R3-I60T, 6 to 7 concentrations were tested for each sweet compound, plus buffer alone. All concentration–receptor combinations were measured in duplicate, and each experiment was repeated at least 4 times (8 wells/concentration). […]

## C=C(C)[C@@H]1CC=C(/C=N/O)CC1 [Perillartine, perillartine]
  EC50: 124 ± 14.1 µM
  R1 = Variant EC50/WT EC50: 1.4
Maximal signal amplitude
  Max ΔF/F0: 0.39 ± 0.02
